# Measurements from patent US5773430A, “Serine proteinase inhibitory activity by hydrophobic tetracycline” (Research Foundation of State University of New York, priority 1997, dated 1998).
# Entries after “also recorded” stand apart in the source; their conditions may differ. Read-outs that look alike come from different tables or passages of the source.
# How the values were obtained:
# [1] = system: human neutrophils (live PMN's); assay: Neutrophil (PMN + 0.5 nM PMA)-mediated R22-ECM hydrolysis (3H-proline cpm released in 6 h); type: cell-based; conditions: for activity at 5 µM / activity at 25 µM / activity at 50 µM: Homo sapiens, Neutrophil, control = hydrolysis in absence of any inhibitor normalized to 100%, 6 h at 37° C.
# Description: The activity of various tetracyclines was investigated employing an in vitro assay of inflammatory tissue injury in which human neutrophils are allowed to degrade a biosynthetically prepared complete interstitial stromal extracellular matrix (ECM). A neutrophil is one type of leukocyte (polymorphonuclear leukocyte). […] E. J. Roemer, K. J. Stanton, and S. R. Simon, "In Vitro Assay Systems for Inflammatory Cell-Mediated Damage to Interstitial Extracellular Matrix," In Vitro Toxicol. 7,75-81 (1994); E. J. Roemer, K. J. Stanton, and S. R. Simon, "In Vitro Assay Systems for Cell Interactions With Interstitial Extracellular Matrix," In Vitro Toxicol. 7,209-224 (1994).
# The serine proteinase inhibiting activity of tetracyclines was tested using an in vitro assay of inflammatory tissue injury in which human neutrophils (live PMN's) were allowed to degrade a biosynthetically prepared complete interstitial stromal extracellular matrix (ECM) produced by cultured R22 rat heart smooth muscle cells as described by Roemer et al. (E. J. Roemer, K. J. Stanton, and S. R. Simon, "In Vitro Assay Systems for Inflammatory Cell-Mediated Damage to Interstitial Extracellular Matrix," In Vitro Toxicol. 7,75-81 (1994); E. J. Roemer, K. J. Stanton, and S. R. Simon, "In Vitro Assay Systems for Cell Interactions With Interstitial Extracellular Matrix," In Vitro Toxicol. 7,209-224 (1994)). Ten different chemically modified tetracyclines (CMTs) designated CMT-1 through CMT-10 and doxycycline, at concentrations ranging from 5 μM to 50 μM, were added to the ECM simultaneously with a suspension of 2×10^6 viable human PMN/mL in Hank's balanced salts solution (HBSS). In these studies, the ECM was metabolically radiolabeled with ^3 H-proline, and counts solubilized after six hours of incubation were measured and compared with counts released after incubation with PMN alone.
# [2] = target: T1, human leukocyte elastase (HLE) (Homo sapiens, UniProt P08246); assay: ECM degradation mediated by purified HLE; type: biochemical
# T1 sequence (P08246 30-267): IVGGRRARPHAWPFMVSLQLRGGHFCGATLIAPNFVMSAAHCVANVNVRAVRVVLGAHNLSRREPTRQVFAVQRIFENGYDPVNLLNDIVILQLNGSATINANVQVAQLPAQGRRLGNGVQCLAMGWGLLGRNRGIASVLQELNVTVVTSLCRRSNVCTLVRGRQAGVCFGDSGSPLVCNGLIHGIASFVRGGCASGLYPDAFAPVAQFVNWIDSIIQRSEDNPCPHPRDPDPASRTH
# Protocol: Direct inhibition of HLE by CMT-3 was determined (Example 2) using a modification of the assay of human leukocyte elastase (HLE) activity described by Ying et al. (Q. Ying, A. R. Rinehart, S. R. Simon, and J. C. Cheronis, "Inhibition of Human Leukocyte Elastase by Ursolic Acid: Evidence for a Hydrophobic Binding Site for Pentacyclic Triterpenes," Biochem. J. 277, 521-526 (1991)) in which the organic solvent and detergent concentrations have been reduced, using a traditional assay of human leukocyte elastase (HLE) activity by measurement of the amidolysis of the chromogenic oligopeptide substrate, methoxysuccinyl-Ala-Ala-Pro-Val-p-nitroanilide. This oligopeptide is generally assumed to occupy the first five subsites of the extended substrate binding domain in HLE. […] When CMT-3 is employed in the assay of ECM degradation mediated by purified HLE rather than live neutrophils, it proves to be an effective inhibitor, with an apparent I50 of ~25-50 μM.
# The capacity of CMT-3 to inhibit HLE is not confined to amidolytic assays, as already shown in FIG. 2, in which the degradation of a complete interstitial extracellular matrix by purified HLE is inhibited by CMT-3.
# [3] = target: T1, human leukocyte elastase (HLE); assay: HLE amidolytic activity (methoxysuccinyl-Ala-Ala-Pro-Val-p-nitroanilide); type: biochemical
# Description: This oligopeptide is generally assumed to occupy the first five subsites of the extended substrate binding domain in HLE.
# To avoid time-dependent adsorption of HLE onto the wells of the 96-well microplates used in the amidolytic assays, the plates were pretreated with a solution of 0.2% bovine serum albumin. […] The […] concentration at which the Dixon plots intersect is a measure of Ki for the inhibitor.
# The inhibitory activity of doxycycline towards amidolysis of methoxysuccinyl-Ala-Ala-Pro-Val-p-nitroanilide by HLE was also determined in the presence of 2% DMSO and no detergent, as described above for CMT-3.
# leukocyte elastase [4] = assay: Leukocyte elastase activity in gingival extracts of LPS-injected rats; type: in vivo, rat; conditions: 2 mg or 5 mg CMT-3 daily, oral gavage, six days, succinyl-Ala-Ala-Ala-p-nitroanilide
# Protocol: Rats received 0.01 mg of E. coli lipopolysaccharide (LPS) or only a vehicle of saline injected in a volume of 10 μl into the maxillary and mandibular labial gingiva on alternate days for a period of six days. Two sets of rats also received 2 mg or 5 mg CMT-3 daily in a volume of 1 ml, administered by oral gavage, for the six day period, while the other sets of rats received only the vehicle of 2% carboxymethylcellulose. At the end of the six day treatment period, the animals were sacrificed and the gingival tissues were dissected. The tissues from each experimental group were pooled, frozen and thawed, and extracted for assays of enzymatic activity according to the procedure of Yu et al. (Z. Yu, N. S. Ramamurthy, M. Leung, K. M. Chang, T. F. McNamara, and L. M. Golub, "Chemically Modified Tetracycline Normalizes Collagen Metabolism in Diabetic Rats," J. Periodont. Res. 28, 420-428 (1993)). Leukocyte elastase activity was assayed using the substrate succinyl-Ala-Ala-Ala-p-nitroanilide according to the procedure of Ramamurthy and Golub (1983) (N. S. Ramamurthy, and L. M. Golub, "Diabetes Increases Collagenase Activity in Extracts of Rat Gingiva and Skin," J. Periodont. Res. 18, 23-30 (1983)). The finding reported here is the capacity of orally administered CMT-3 to reduce the level of leukocyte elastase activity in the gingival extracts of LPS-injected rats. […]
# leukocyte elastase [5] = target: T2, leukocyte elastase (Homo sapiens, UniProt P08246); assay: Leukocyte elastase inhibitory activity; type: biochemical
# T2 sequence (P08246 30-247): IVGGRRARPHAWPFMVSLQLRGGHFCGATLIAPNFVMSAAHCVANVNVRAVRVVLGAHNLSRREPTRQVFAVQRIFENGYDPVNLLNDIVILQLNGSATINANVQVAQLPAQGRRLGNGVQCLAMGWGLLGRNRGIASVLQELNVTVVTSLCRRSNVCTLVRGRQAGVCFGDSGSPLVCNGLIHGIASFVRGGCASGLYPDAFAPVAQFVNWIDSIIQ
# [6] = target: T1, human leukocyte elastase (HLE); assay: HLE amidolytic activity (methoxysuccinyl-Ala-Ala-Pro-Val-p-nitroanilide); type: biochemical; conditions: in the presence of 10% dimethylsulfoxide and 0.1% Triton X-100
# MMP-8 = conditions: in vitro; read-out: K1, inhibition of MMP-8 activity in vitro; cited from earlier work
# [7] = system: human neutrophils (live PMN's); conditions: cited from earlier work
# [8] = 2% DMSO, no detergent, 100 μM through 300 μM substrate, Dixon plot, read-out: Ki for inhibition of amidolytic activity of HLE
# [9] = Dixon and Cornish-Bowden plots, FIGS. 3-5, read-out: apparent K1, inhibition of amidolysis
"Ki [3, 8] [µM]","Ki [3, 9] [µM]",Molecule,activity at 5 µM [1] [%],activity at 25 µM [1] [%],activity at 50 µM [1] [%],"leukocyte elastase inhibitory activity, in words (leukocyte elastase [5])",further results
25 to 40,18 to 40,"NC(=O)C1=C(O)C2(O)C(=O)C3=C(O)c4c(O)cccc4CC3CC2CC1=O (stereo not shown) [CMT-3, 6-demethyl-6-deoxy-4-de(dimethylamino)tetracycline]",69,55,50,substantial leukocyte elastase inhibitory activity,"inhibition of neutrophil-mediated ECM degradation [1]: ~ 50%; capacity to inhibit ECM degradation (protecting the ECM from neutrophil-mediated destruction), in words ([1]; 30 μM, FIG. 1): far superior to other tetracyclines in protecting the ECM from neutrophil-mediated destruction; inhibition of ECM degradation, in words ([1]; 5-50 μM, Table 1 and FIG. 1): good inhibition of ECM degradation at all doses employed in this assay; inhibition of neutrophil-mediated ECM degradation ([1]; 25-50 μM, dose response studies): approximately 50%; inhibition of HLE-mediated degradation of ECM, in words ([2]; FIG. 2: 25 μM CMT-3, 10 μM purified HLE, compared with PMN, other tetracyclines at comparable doses): comparable inhibition of human neutrophil-mediated and human leukocyte elastase-mediated degradation of extracellular matrix; also recorded: comparable to that determined from the assays of HLE amidolytic activity; IC50 ([2]; purified HLE rather than live neutrophils, read-out: apparent I50, ECM degradation mediated by purified HLE): 25 to 50 µM; mechanism of inhibition of HLE amidolytic activity ([3]; Dixon and Cornish-Bowden plots): predominantly competitive inhibitor; leukocyte elastase activity in gingival extracts, in words (leukocyte elastase [4]): reduced the activity of leukocyte elastase; also recorded: to the levels detected in animals receiving gingival injections of saline solution alone; inhibitory potency, HLE amidolytic activity, in words [6]: markedly reduced"
~300,> 300,C[C@H]1c2cccc(O)c2C(=O)C2=C(O)[C@]3(O)C(=O)C(C(N)=O)=C(O)[C@@H](N(C)C)[C@@H]3[C@@H](O)[C@@H]21 [doxycycline],98,92,84,do not exhibit substantial leukocyte elastase inhibitory activity,"potency as inhibitors of the amidolytic activity of HLE, in words [3]: only very weak inhibition; also recorded: only a very weak inhibitor of HLE; Ki (MMP-8): 25 to 50 µM"
–,–,CN(C)c1ccc(O)c2c1C[C@H]1C[C@H]3[C@H](N(C)C)C(O)=C(C(N)=O)C(=O)[C@@]3(O)C(O)=C1C2=O [minocycline],–,–,–,do not exhibit substantial leukocyte elastase inhibitory activity,–
–,–,αhd 1-PI: the major endogenous inhibitor of human leukocyte elastase,–,–,–,–,"neutrophil-mediated degradation of ECM, inhibition in words [7]: virtually completely inhibited"
